Data: PMC7946438 (The Journal of Biological Chemistry, 2021)

What was measured:
[1] = biological target: pY-Src (Homo sapiens, UniProt P12931); assay: Coupled kinase assay, phosphorylated Src; format: biochemical; settings: 5 μM of 4
[2] = biological target: T1, Hck (Homo sapiens, UniProt P08631); assay: biochemical; format: biochemical
Target sequence in this assay (P08631 262-515 limits assumed): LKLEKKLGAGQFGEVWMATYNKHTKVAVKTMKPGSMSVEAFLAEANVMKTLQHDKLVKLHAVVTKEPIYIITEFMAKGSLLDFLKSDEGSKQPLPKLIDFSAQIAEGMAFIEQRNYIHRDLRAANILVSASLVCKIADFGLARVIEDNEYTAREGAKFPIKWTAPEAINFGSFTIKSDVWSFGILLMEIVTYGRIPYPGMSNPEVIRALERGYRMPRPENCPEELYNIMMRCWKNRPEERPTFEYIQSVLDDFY

[3] = biological target: T2, Src (Homo sapiens, UniProt P12931); settings: MDA-MB-231
Target sequence in this assay (P12931 whole entry): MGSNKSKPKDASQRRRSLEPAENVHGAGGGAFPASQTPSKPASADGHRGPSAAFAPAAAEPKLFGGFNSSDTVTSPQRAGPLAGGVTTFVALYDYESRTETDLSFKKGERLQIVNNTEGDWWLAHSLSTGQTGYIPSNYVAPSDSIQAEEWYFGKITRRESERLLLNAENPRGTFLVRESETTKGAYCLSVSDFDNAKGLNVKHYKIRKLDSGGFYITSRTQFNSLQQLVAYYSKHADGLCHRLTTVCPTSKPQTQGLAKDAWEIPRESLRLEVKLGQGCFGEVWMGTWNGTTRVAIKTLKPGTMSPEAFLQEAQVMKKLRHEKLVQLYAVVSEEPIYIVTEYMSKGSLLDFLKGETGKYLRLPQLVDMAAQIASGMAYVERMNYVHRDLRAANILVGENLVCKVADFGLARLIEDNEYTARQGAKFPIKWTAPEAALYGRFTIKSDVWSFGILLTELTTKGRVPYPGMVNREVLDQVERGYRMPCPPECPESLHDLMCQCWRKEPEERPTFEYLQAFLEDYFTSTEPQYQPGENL

[4] = biological target: T3, DYRK2 (Homo sapiens, UniProt Q92630); assay: Stop-flow tryptophan fluorescence binding kinetics, DYRK2; settings: tryptophan fluorescence transient
T3 sequence (Q92630 146-540): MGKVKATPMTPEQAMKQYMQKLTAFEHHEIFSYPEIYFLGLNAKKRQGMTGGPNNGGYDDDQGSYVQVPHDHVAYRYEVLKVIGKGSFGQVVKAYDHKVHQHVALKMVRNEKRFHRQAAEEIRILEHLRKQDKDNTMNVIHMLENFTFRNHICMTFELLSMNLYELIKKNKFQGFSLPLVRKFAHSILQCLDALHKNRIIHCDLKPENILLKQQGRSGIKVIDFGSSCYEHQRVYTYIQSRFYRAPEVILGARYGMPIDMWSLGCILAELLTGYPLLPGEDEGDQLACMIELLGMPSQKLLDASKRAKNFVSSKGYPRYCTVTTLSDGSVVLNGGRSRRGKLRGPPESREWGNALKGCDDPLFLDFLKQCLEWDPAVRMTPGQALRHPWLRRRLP

[5] = tested on: MDA-MB-231 cells; assay: Wound-healing assay; format: cell-based; settings: IC10 and IC50 dose
[6] = tested on: RAW 264.7 cells; assay: Intracellular calcium detection; format: cell-based, murine; settings: RAW 264.7, 5 μM of 4
[7] = Aggregation by dynamic light scattering; format: physicochemical; settings: 15 μM in aqueous assay buffer
[8] = biological target: T4, Abl Y253F (Homo sapiens, UniProt P00519, Y253F); assay: Kinase activity of Abl Y253F mutant; format: biochemical; settings: 10 μM
T4 sequence (P00519 229-512 Y253F limits assumed): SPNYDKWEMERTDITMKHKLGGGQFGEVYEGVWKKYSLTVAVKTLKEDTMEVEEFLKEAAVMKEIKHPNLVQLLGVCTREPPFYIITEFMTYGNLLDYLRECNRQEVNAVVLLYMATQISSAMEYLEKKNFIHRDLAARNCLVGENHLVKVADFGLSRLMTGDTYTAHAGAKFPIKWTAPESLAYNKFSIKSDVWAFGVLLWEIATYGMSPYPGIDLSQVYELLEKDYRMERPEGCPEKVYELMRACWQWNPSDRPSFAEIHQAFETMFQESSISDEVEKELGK

[9] = biological target: T4, Abl Y253F; assay: Stop-flow tryptophan fluorescence binding kinetics, Abl Y253F
[10] = tested on: MDA-MB-231 cells; assay: Plasma membrane integrity, FM4-64-FX live-cell imaging; format: cell-based; settings: 15 μM, 6 h
[11] = biological target: T1, Hck; assay: biochemical; format: binding
Target sequence in this assay (P08631 247-526 limits assumed): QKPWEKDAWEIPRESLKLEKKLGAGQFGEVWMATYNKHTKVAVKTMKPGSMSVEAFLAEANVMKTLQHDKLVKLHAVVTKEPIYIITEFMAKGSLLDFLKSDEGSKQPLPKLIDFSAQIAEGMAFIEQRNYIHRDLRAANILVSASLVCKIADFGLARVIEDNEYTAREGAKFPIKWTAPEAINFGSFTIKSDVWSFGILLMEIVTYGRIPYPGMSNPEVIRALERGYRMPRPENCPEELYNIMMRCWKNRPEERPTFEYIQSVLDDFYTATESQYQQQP

[12] = biological target: Src kinase domain (Homo sapiens, UniProt P12931)
Src kinase domain, sequence (P12931 254-535 limits assumed): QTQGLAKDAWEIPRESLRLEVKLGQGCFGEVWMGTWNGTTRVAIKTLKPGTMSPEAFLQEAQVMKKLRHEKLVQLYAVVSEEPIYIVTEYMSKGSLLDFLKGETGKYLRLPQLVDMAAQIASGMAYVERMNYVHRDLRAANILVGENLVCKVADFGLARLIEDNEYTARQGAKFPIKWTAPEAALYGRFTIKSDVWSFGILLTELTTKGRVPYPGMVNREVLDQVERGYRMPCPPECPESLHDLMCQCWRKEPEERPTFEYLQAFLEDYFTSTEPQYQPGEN

[13] = tested on: MDA-MB-231 cells; assay: Stability of the compound in cells by live-cell fluorescence imaging; format: in vitro ADME; settings: MDA-MB-231, 10 μM
[14] = biological target: T1, Hck; format: biochemical
Target sequence in this assay (P08631 247-526 limits assumed): as the sequence (P08631 247-526 limits assumed) above

[15] = tested on: HEK 293T; assay: Cytotoxicity by MTT assay, HEK 293T; format: cell-based; settings: Homo sapiens, 48 h, read-out: IC50 value HEK 293T
[16] = biological target: T2, Src; format: biochemical
Target sequence in this assay (P12931 254-535 limits assumed): as the sequence (P12931 254-535 limits assumed) above

[17] = Solution stability; format: physicochemical
[18] = biological target: pY-Hck (Homo sapiens, UniProt P08631); assay: Coupled kinase assay, phosphorylated Hck; format: biochemical; settings: 5 μM of 4
pY-Hck, sequence (P08631 166-445): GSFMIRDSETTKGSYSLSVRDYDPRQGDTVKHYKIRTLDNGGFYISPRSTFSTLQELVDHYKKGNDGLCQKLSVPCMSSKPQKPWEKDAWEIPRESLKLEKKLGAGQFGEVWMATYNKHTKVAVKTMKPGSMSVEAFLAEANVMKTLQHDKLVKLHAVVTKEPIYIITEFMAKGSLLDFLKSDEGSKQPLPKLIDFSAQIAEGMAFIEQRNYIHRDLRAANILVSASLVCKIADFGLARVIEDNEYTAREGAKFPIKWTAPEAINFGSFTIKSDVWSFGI

[19] = tested on: Src, ERK1/2, and STAT3; assay: Phosphorylation of Src, ERK1/2 and STAT3 in macrophages, immunoprecipitation; format: cell-based, murine; settings: RAW 264.7, LPS activated
[20] = biological target: T2, Src; assay: biochemical
Target sequence in this assay (P12931 254-535 limits assumed): as the sequence (P12931 254-535 limits assumed) above

[21] = tested on: ERK1/2; assay: ERK1/2 nuclear translocation, immunofluorescence; format: cell-based; settings: MDA-MB-231, 5 μM of 4
[22] = tested on: Bcl-2, Cytochrome C, caspase 3, Bid; assay: Western blot analysis of apoptosis markers; format: cell-based; settings: MDA-MB-231, 10 and 20 μM, 12 h
[23] = tested on: STAT3; assay: STAT3 nuclear translocation, immunofluorescence; format: cell-based, murine; settings: RAW 264.7, 5 μM of 4
[24] = tested on: MDA-MB-231; assay: Cytotoxicity by MTT assay, MDA-MB-231; format: cell-based; settings: for IC50: Homo sapiens, MDA-MB-231, read-out: IC50 dose; for IC10 dose: MDA-MB-231, value used as dose in wound-healing assay
[25] = tested on: pUC19 plasmid DNA; assay: DNA cross-linking assay; settings: 0.1–20 μM, 37 °C, 2 h
[26] = biological target: T3, DYRK2; assay: Coupled kinase assay, DYRK2; format: biochemical

pY-Src, sequence (P12931 254-535): as the sequence (P12931 254-535 limits assumed) above

COc1cc(/C=C/C(=O)C(=Cc2ccc(N(CCCl)CCCl)cc2)C(=O)/C=C/c2ccc(O)c(OC)c2)ccc1O [Compound 4, (1E,6E)-4-(4-(bis(2-chloroethyl)amino)benzylidene)-1,7-bis(4-hydroxy-3-methoxyphenyl)hepta-1,6-diene-3,5-dione]
Inhibition of phosphorylated Src (pY-Src) [1]: does not inhibit
Ki [2]: 70 ± 11 nM
Mode of inhibition ([2]; Km for ATP changes, Vmax unchanged): competitive inhibitor for the ATP-binding site
Autophosphorylation of Src in the cell [3]: inhibits the autophosphorylation of Src
Interaction with DYRK2 [4]: did not interact
Effect on wound-healing rates [5]: significantly impaired the wound-healing rates
Ca^2+ release after LPS activation [6]: significant reduction
Aggregation in solution (oligomeric state, DLS) [7]: did not aggregate
Inhibition of Abl Y253F kinase activity [8]: better inhibition compared with imatinib
Kd [9]: 1300 ± 300 nM
Effect on plasma membrane integrity [10]: not affecting the membrane integrity
Kd [11]: 50 ± 10 nM
Covalent modification of cysteine residues of Src kinase [12]: not covalently modifying
Time for which fluorescence was observed inside the cell ([13]; observed for 14 h): 14 h
Reduction of the rate of autophosphorylation [14]: 500 fold
IC50 [15]: 24900 ± 1000 nM
Reduction of the rate of autophosphorylation [16]: 2.5 fold
Time stable in solution by 1H NMR ([17]; 8:2 v/v of 1x PBS and DMSO-d6, 24 h observed period): at least 24 h
Stability in the kinase assay buffer ([17]; kinase assay buffer pH 8.0, 5% DMSO, 1 h): most stable
Inhibition of phosphorylated Hck (pY-Hck) [18]: does not inhibit
Phosphorylation of Src, ERK1/2, and STAT3 [19]: concentration-dependent reduced phosphorylation
Ki [20]: 460 ± 110 nM
Cytosolic fraction of ERK1/2 after TNF-α activation [21]: significantly increased
BH3 interacting domain death agonist expression level [22]: does not affect
Mitochondria-mediated apoptotic pathway (Bcl-2, cytochrome C, Caspase3) [22]: activates the mitochondria-mediated apoptotic pathway
Cytosolic fraction of STAT3 after LPS activation [23]: increased cytosolic fraction of STAT3
IC50 [24]: 1300 nM
IC10 dose [24]: 100 nM
DNA cross-linking [25]: do not cross-link DNA

COc1cc(/C=C/C(=O)CC(=O)/C=C/c2ccc(O)c(OC)c2)ccc1O [Compound 1, Curcumin, reference compound]
Ki [26]: 6 nM
Time to degradation inside the cell ([13]; fluorescence): ≤ 1 h
IC50 [24]: 13000 nM
IC10 dose [24]: 600 nM
